In patent publication US9416141B2 (University of Washington through its Center for …, priority 2012, dated 2016):
Structures can show the parent of a compound that is named as a salt.

System: hair cells
Test: Hair cell toxicity assay in zebrafish (neomycin-induced hair cell death, DASPEI staining of neuromasts)
Type: in vivo
Settings: Danio rerio; for Emax at 2.8 µM: maximum observed @ 2.8 μM test compound; for EC50: zebrafish larvae 5-7 dpf, 1 h pre-treatment, then 200 micromolar neomycin + test compound 30 min, read-out: HC50 (concentration that would produce 50% hair cell survival); for Emax at 25 µM: maximum observed @ 25 μM test compound
Summary of the method: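 Zebrafish larvae 5-7 dpf pre-treated 1 h with compound (0.010-25 μM), then 30 min with 200 μM neomycin plus compound. DASPEI stained 10 neuromasts per fish, scored 0-2 (total 0-20), normalised to vehicle controls as % hair cell survival. HC50 linearly interpolated if survival reached ≥50%; HCmax is maximum survival.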

[1] = 200 micromolar neomycin, read-out: Max HC Protection (HCmax, % hair cell survival)

Row | Compound | Emax at 2.8 µM [1] | EC50 | Emax at 25 µM [1] | Emax at 0.9 µM (maximum observed @ 0.9 μM test compound, 200 micromolar neomycin, read-out: Max HC Protection (HCmax, % hair cell survival))
1 | NC(=O)c1c(NC(=O)Nc2ccc(Cl)cc2)sc2c1CC1CCC2N1CC1CCC1 (racemic) [Example 132, (+/−)-2-[3-(4-Chlorophenyl)ureido]-9-(cyclobutylmethyl)-5,6,7,8-tetrahydro-4H-5,8-epiminocyclohepta[b]thiophene-3-carboxamide hydrochloride] | 97% | < 1000 nM | – | –
2 | CC(C)(C)OC(=O)C[N+]1(C)CCc2c(sc(NC(=O)Nc3ccc(Cl)cc3)c2C(N)=O)C1 (stereo not shown) [Example 147, 6-(2-tert-Butoxy-2-oxoethyl)-3-carbamoyl-2-[3-(4-chlorophenyl)ureido]-6-methyl-4,5,6,7-tetrahydrothieno[2,3-c]pyridin-6-ium iodide] | 90% | < 1000 nM | – | –
3 | CC[N+]1(C)CCc2sc(NC(=O)Nc3ccc(Cl)cc3)c(C(N)=O)c2CC1 (stereo not shown) [Example 174, 3-Carbamoyl-2-[3-(4-chlorophenyl)ureido]-6-ethyl-6-methyl-5,6,7,8-tetrahydro-4H-thieno[2,3-d]azepin-6-ium iodide] | – | 1000 to 10000 nM | 74% | –
4 | CC(C)(C)C[N+]1(C)CCc2c(sc(NC(=O)Nc3ccc(Cl)cc3)c2C(N)=O)C1 (stereo not shown) [Example 171, 3-Carbamoyl-2-[3-(4-chlorophenyl)ureido]-6-methyl-6-neopentyl-4,5,6,7-tetrahydrothieno[2,3-c]pyridin-6-ium iodide] | 92% | < 1000 nM | – | –
5 | C[N+]1(C)CCc2c(sc(NC(=O)Nc3ccc(Cl)cc3)c2C(N)=O)C1 [Example 162, 3-Carbamoyl-2-[3-(4-chlorophenyl)ureido]-6,6-dimethyl-4,5,6,7-tetrahydrothieno[2,3-c]pyridin-6-ium trifluoroacetate] | 36% | – | – | –
6 | CCN1CCc2c(sc(NC(=O)Nc3ccc(Oc4ccccc4)cc3)c2C(N)=O)C1 [Example 225, 6-ethyl-2-{[(4-phenoxyphenyl)carbamoyl]amino}-4H,5H,6H,7H-thieno[2,3-c]pyridine-3-carboxamide] | – | 1000 to 10000 nM | 91% | –
7 | CCN1CCc2c(sc(NC(=O)Nc3cccnc3)c2C(N)=O)C1 [Example 69, 6-Ethyl-2-[3-(pyridin-3-yl)ureido]-4,5,6,7-tetrahydrothieno[2,3-c]pyridine-3-carboxamide dihydrochloride] | – | – | 12% | –
8 | CC(C)CN1CCc2c(sc(NC(=O)Nc3ccc4ccccc4c3)c2C(N)=O)C1 [Example 34, 6-Isobutyl-2-[3-(naphthalen-2-yl)ureido]-4,5,6,7-tetrahydrothieno[2,3-c]pyridine-3-carboxamide hydrochloride] | – | 1000 to 10000 nM | 87% | –
9 | CCN1CCc2c(sc(NC=O)c2C(N)=O)C1 [Example 108, 6-ethyl-2-formamido-4,5,6,7-tetrahydrothieno[2,3-c]pyridine-3-carboxamide hydrochloride] | – | – | – | 13%
10 | CN1CCC(N2CCc3c(sc(NC(=O)Nc4ccc(Cl)cc4)c3C(N)=O)C2)C1 (racemic) [Example 9, (+/−)-2-[3-(4-Chlorophenyl)ureido]-6-(1-methylpyrrolidin-3-yl)-4,5,6,7-tetrahydrothieno[2,3-c]pyridine-3-carboxamide dihydrochloride] | – | 1000 to 10000 nM | 82% | –
11 | CCN1CCc2c(sc(NC(=O)Nc3ccc(C(=O)OC)cc3)c2C(N)=O)C1 [Example 31, Methyl 4-[3-(3-carbamoyl-6-ethyl-4,5,6,7-tetrahydrothieno[2,3-c]pyridin-2-yl)ureido]benzoate trifluoroacetate] | – | – | 22% | –
12 | NC(=O)c1c(NC(=O)Nc2ccc(Cl)cc2)sc2c1CCN(C1COC1)C2 [Example 6, 2-[3-(4-Chlorophenyl)ureido]-6-(oxetan-3-yl)-4,5,6,7-tetrahydrothieno[2,3-c]pyridine-3-carboxamide hydrochloride] | – | 1000 to 10000 nM | 72% | –
13 | CCN1CCc2c(sc(NC(=O)Nc3cnc4ccccc4c3)c2C(N)=O)C1 [Example 78, 6-Ethyl-2-[3-(quinolin-3-yl)ureido]-4,5,6,7-tetrahydrothieno[2,3-c]pyridine-3-carboxamide dihydrochloride] | – | > 10000 nM | 52% | –
